In PubChem BioAssay AID1963835 (Molecular Pharmacology Branch, DTP, NCI, 2024):
pIC50: −log10 of the molar value.

System: 699152-130-R-J1-PDC complex spheroid viability
Assay: Anticancer human tumor 699152-130-R-J1-PDC patient-derived pancreatic carcinoma cell line growth inhibition [POLQ]
Conditions: for pIC50: curve of first compound; for viability, T/C: stronger effect = lower value
Experimental: Multicellular complex tumor spheroid response to Polymerase (POL) inhibitors (novobiocin, ART-558, RP6685) in combination with a variety of drugs and investigational agents in selected tumor cell lines
The POL inhibitors (novobiocin, ART-558, and RP6685) were evaluated both individually and in combination with standard of care and investigational anticancer small molecules within a complex spheroid model of solid tumors. . Complex spheroids include a stromal component modeled by human endothelial cells (HUVEC) and fibroblasts modeled by human mesenchymal stem cells (MSCs). The concentration ranges selected for each drug and investigational agent were based upon clinically achievable concentrations if the clinical Cmax of the agent was known.
Compounds. The drugs and investigational agents: novobiocin (NSC847541), ART-558 (NSC835418), RP-6685 (NSC848927), peposertib (NSC802822), ceralasertib (NSC780249), elimusertib (NSC800525), camonsertib (NSC841442), AZD-1390 (NSC803789), olaparib (NSC753686), talazoparib (NSC767125), rucaparib (NSC756644), sotorasib (NSC818433), MRTX-1133 (NSC836407), SN-38 (NSC673596), topotecan (NSC609699), epotoside (NSC141540), doxorubicin (NSC123127), gemcitabine (NSC613327), 5-fluorouracil (NSC19893), paclitaxel (NSC125973), vemurafenib (NSC761431), MSA-2 (NSC828583), SN-011 (NSC837082), adavosertib (NSC754352), prexasertib (NSC758257), carboplatin (NSC241240) and oxaliplatin (NSC266046), were obtained from the National Cancer Institute (NCI) Developmental Therapeutics Program Chemical Repository (21). The FDA-approved anticancer drug set is available from the Developmental Therapeutics Program at https://dtp.cancer.gov/organization/dscb/obtaining/. […] The stock solutions were prepared in dimethyl sulfoxide (DMSO, Sigma-Aldrich, St. Louis, MO, cat. D2650), except for the platinum compounds which were prepared in saline (Quality Biological, Gaithersburg, MD, cat. 114-055-101), at 800-fold the tested concentration and stored at -70 degrees C prior to their use. All drugs and investigational agents were tested over a range starting from a high concentration at or near the clinical Cmax and decreasing in half-log increments. If the clinical Cmax for an agent had not been determined, the highest concentration tested was 10 microM, except for SN-38, which was tested at a high concentration of 1 microM.
Cell Culture. All cells were maintained in an incubator at 37 degrees C and 5% CO2 with 95% humidity. The PDC lines were cultured according to standard operating procedures established by the NCI PDMR (https://pdmr.cancer.gov). Table 3 of the manuscript, lists the cell lines along with the number of the three cell types plated to form the mct-spheroids and media for tumor cell growth. After thawing, all PDC lines, except 997537-175-T-J1-PDC and 415267-285-R-J2-PDC, were cultured in Matrigel-coated flasks prepared with a working solution of 1X Ham's F-12 nutrient mix, without supplementation (Thermo Fisher Scientific, cat. 11765054), 100 U/mL penicillin-streptomycin (Thermo Fisher Scientific, cat. 15140122), and 2.5% Matrigel (Corning Inc., Corning, NY, cat. 354248) for the first three passages. The two PDC lines 997537-175-T-J1-PDC and 415267-285-R-J2-PDC were cultured on uncoated flasks. The 857933-349-R-J2-PDC line was cultured in 6C/Colon 1B media containing advanced DMEM/F-12 (Thermo Fisher Scientific, cat. 12634028), 10 mM HEPES (Thermo Fisher Scientific, cat. 15630080), 1X GlutaMAX supplement (Thermo Fisher Scientific, cat. 35050061), 0.1 mg/mL primocin (InvivoGen, San Diego, CA, cat. ant-pm-2), 10% defined fetal bovine serum, heat inactivated (HyClone Laboratories Inc., Logan, UT, cat. SH30070.03HI), 50% L-WRN conditioned media (ATCC, cat. CRL-3276), 1.25 mM N-Acetyl-L-cysteine (Sigma-Aldrich, cat. A9165), 10 mM nicotinamide (Sigma-Aldrich, cat. N0636), 1X B-27 supplement (Thermo Fisher Scientific, cat. 17504044), 1X N-2 supplement (Thermo Fisher Scientific, cat. […]

[1] = second compound 0.0316 µM, first compound 0.0316 µM
[2] = second compound 0.0316 µM, first compound 0.1 µM
[3] = second compound 0.0316 µM, first compound 0.316 µM
[4] = second compound 0.0316 µM, first compound 1 µM
[5] = second compound 0.0316 µM, first compound 3.16 µM
[6] = second compound 0.0316 µM, first compound 10 µM
[7] = second compound 0.1 µM, first compound 0.0316 µM
[8] = second compound 0.1 µM, first compound 0.1 µM
[9] = second compound 0.1 µM, first compound 0.316 µM
[10] = second compound 0.1 µM, first compound 1 µM
[11] = second compound 0.1 µM, first compound 3.16 µM
[12] = second compound 0.1 µM, first compound 10 µM
[13] = second compound 0.316 µM, first compound 0.0316 µM
[14] = second compound 0.316 µM, first compound 0.1 µM
[15] = second compound 0.316 µM, first compound 0.316 µM
[16] = second compound 0.316 µM, first compound 1 µM
[17] = second compound 0.316 µM, first compound 3.16 µM
[18] = second compound 0.316 µM, first compound 10 µM
[19] = second compound 1 µM, first compound 0.0316 µM
[20] = second compound 1 µM, first compound 0.1 µM
[21] = second compound 1 µM, first compound 0.316 µM
[22] = second compound 1 µM, first compound 1 µM
[23] = second compound 1 µM, first compound 3.16 µM
[24] = second compound 1 µM, first compound 10 µM
[25] = second compound 3.16 µM, first compound 0.0316 µM
[26] = second compound 3.16 µM, first compound 0.1 µM
[27] = second compound 3.16 µM, first compound 0.316 µM
[28] = second compound 3.16 µM, first compound 1 µM
[29] = second compound 3.16 µM, first compound 3.16 µM
[30] = second compound 3.16 µM, first compound 10 µM
[31] = second compound 10 µM, first compound 0.0316 µM
[32] = second compound 10 µM, first compound 0.1 µM
[33] = second compound 10 µM, first compound 0.316 µM
[34] = second compound 10 µM, first compound 1 µM
[35] = second compound 10 µM, first compound 3.16 µM
[36] = second compound 10 µM, first compound 10 µM
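Further: spheroids exposed to agents for 7 days before viability reading.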
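Wherever viability, T/C is given: percent of DMSO vehicle control viability so 100% = vehicle and 0% = no viable signal.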

CC(C)n1c(=O)n(C)c2cnc3cc(F)c(-c4ccc(OCCCN5CCCCC5)nc4)cc3c21 + COC1C(OC(N)=O)C(O)C(Oc2ccc3c(O)c(NC(=O)c4ccc(O)c(CC=C(C)C)c4)c(=O)oc3c2C)OC1(C)C
pIC50 (second compound 0.0316 µM): > 7.50
pIC50 (second compound 0.1 µM): > 7.50
pIC50 (second compound 0.316 µM): > 7.50
pIC50 (second compound 1 µM): > 7.50
pIC50 (second compound 3.16 µM): > 7.50
pIC50 (second compound 10 µM): > 7.50
viability, T/C [1]: 38.8%
viability, T/C [2]: 44.1%
viability, T/C [3]: 39.9%
viability, T/C [4]: 47.7%
viability, T/C [5]: 46.4%
viability, T/C [6]: 45.8%
viability, T/C [7]: 34.7%
viability, T/C [8]: 40.6%
viability, T/C [9]: 41.8%
viability, T/C [10]: 41%
viability, T/C [11]: 38.9%
viability, T/C [12]: 39.9%
viability, T/C [13]: 38.9%
viability, T/C [14]: 39.2%
viability, T/C [15]: 46.5%
viability, T/C [16]: 44.8%
viability, T/C [17]: 42%
viability, T/C [18]: 43.5%
viability, T/C [19]: 40.9%
viability, T/C [20]: 44.4%
viability, T/C [21]: 40.4%
viability, T/C [22]: 39.6%
viability, T/C [23]: 41.8%
viability, T/C [24]: 41.8%
viability, T/C [25]: 40.5%
viability, T/C [26]: 41.9%
viability, T/C [27]: 41.7%
viability, T/C [28]: 47.2%
viability, T/C [29]: 42.6%
viability, T/C [30]: 41.3%
viability, T/C [31]: 48.5%
viability, T/C [32]: 39.8%
viability, T/C [33]: 37.8%
viability, T/C [34]: 38.3%
viability, T/C [35]: 44.6%
viability, T/C [36]: 37.5%

COc1cc(C2c3cc4c(cc3C(OC3OC5COC(C)OC5C(O)C3O)C3COC(=O)C23)OCO4)cc(OC)c1O (centres undefined) + Cc1cccc(N(C)C(=O)C2C(O)CCN2c2nc(C)cc(C(F)(F)F)c2C#N)c1
pIC50 (second compound 0.0316 µM): 5.17
pIC50 (second compound 0.1 µM): < 5.00
pIC50 (second compound 0.316 µM): 5.12
pIC50 (second compound 1 µM): < 5.00
pIC50 (second compound 3.16 µM): < 5.00
pIC50 (second compound 10 µM): < 5.00
viability, T/C [1]: 111%
viability, T/C [2]: 108%
viability, T/C [3]: 76.4%
viability, T/C [4]: 72.2%
viability, T/C [5]: 52.5%
viability, T/C [6]: 47.6%
viability, T/C [7]: 101%
viability, T/C [8]: 84.6%
viability, T/C [9]: 72.9%
viability, T/C [10]: 72.8%
viability, T/C [11]: 55%
viability, T/C [12]: 50.8%
viability, T/C [13]: 102%
viability, T/C [14]: 96.3%
viability, T/C [15]: 83.4%
viability, T/C [16]: 74.2%
viability, T/C [17]: 58.9%
viability, T/C [18]: 47.2%
viability, T/C [19]: 112%
viability, T/C [20]: 86.1%
viability, T/C [21]: 81.9%
viability, T/C [22]: 74.9%
viability, T/C [23]: 63.7%
viability, T/C [24]: 47.3%
viability, T/C [25]: 98%
viability, T/C [26]: 101%
viability, T/C [27]: 71.8%
viability, T/C [28]: 74.4%
viability, T/C [29]: 62.2%
viability, T/C [30]: 51.2%
viability, T/C [31]: 101%
viability, T/C [32]: 77.7%
viability, T/C [33]: 70.6%
viability, T/C [34]: 75.9%
viability, T/C [35]: 71.1%
viability, T/C [36]: 55.9%
